Results as given in US9974776B2, “Estrogen receptor beta agonists for use in treating mesothelioma” (Karo Pharma AB, priority 2013, dated 2018).

How the values were obtained:
MMB cells = experiment: Proliferation assay in MMB cells; assay type: cell-based; conditions: 10 nM single agent, 24 and 48 hours
Procedure: (§1) Cells were seeded at a density of 10×10^4 cells/well in 6-well plates in RPMI medium supplemented with 10% FBS, 100 μg/ml streptomycin and 10 μg/ml penicillin and incubated over-night at 37° C. in a humidified environment containing 5% CO2 to allow adherence. Following treatment cells were trypsinized and stained with Trypan blue. The number of cells considered viable (unstained cells) was counted in a Bürker haemocytometer within 5 minutes after staining.

MSTO-211H cells = experiment: Proliferation assay in ERβ negative MSTO-211H cells; assay type: cell-based; conditions: 10 nM single agent, 24 and 48 hours
Procedure: as §1

[1] = Treatment toxicity by mice body weights; assay type: in vivo; conditions: 10 mg/kg/day s.c. during drug administration
Procedure: Animals. CD1 nude mice (males, 6 weeks old; Charles River, Calco, Italy) received intraperitoneal (i.p.) injections of 2×10^6 luciferase transduced REN cells in 0.5 mL of RPMI medium. After anesthetization and i.p. injections of 0.3 mL of 15 mg/mL D-luciferin, tumor dimension and localization of luminescent cells was monitored using the In Vivo Imaging System (IVIS) series (Xenogen Corporation, Hopkinton, Mass., USA). Regions of interest were identified around the tumor sites and were quantified as total photon counts using Living Image software (Xenogen Corporation). The values of tumor sizes were obtained, subtracting luminescence signals of each weekly measurement by the average of all animals within a treatment group on the 15th day after inoculation (day when treatment started). To evaluate treatment toxicity, mice were weighed at the start and end of treatments. Mice were killed and necropsied after 20 days of treatment. In vivo experiments were approved by Istituto Scientifico Tumori (Genoa, Italy) ethical committee and conform to the relevant regulatory standards. Mice were maintained and handled under aseptic conditions, and were allowed access to food and water ad libitum.

PARP1 cleavage = experiment: Western blot of PARP1 cleavage in MMP cells; assay type: cell-based, human; conditions: 10 nM two hours, wash-off, 50 μM cisplatin
Procedure: (§2) Cells were extracted with 1% NP-40 lysis buffer (1% NP-40, 150 mM NaCl, 50 mM Tris-HCl pH 8.5 mM EDTA, 10 mM NaF, 10 mM Na4P2O7, 0.4 mM Na3VO4) with freshly added protease inhibitors (10 μg/ml leupeptin, 4 μg/ml pepstatin and 0.1 Unit/ml aprotinin). For protein extraction from tissues, ˜100 mg of each sample were homogenized, using a Potter-Elvehjem homogenizer device, in 1% NP-40 lysis buffer. Lysates were centrifuged at 13.000×g for 10 minutes at 4° C. and the supernatants were collected and assayed for protein concentration with the Bio-Rad protein assay method.
(§3) Proteins were separated by SDS-PAGE under reducing conditions. Following SDS-PAGE, proteins were transferred to nitrocellulose, reacted with specific antibodies and then detected with peroxidase-conjugate secondary antibodies and chemioluminescent ECL reagent. Densitometric analysis was performed using the GS 250 Molecular Image (Bio-Rad).
(§4) Levels of PARP1, cleaved PARP1, AKT and phosphorylated AKT in the MMP cell cultures at 24 hours were also determined by Western blot analysis.

AKT phosphorylation [2] = experiment: Western blot of AKT phosphorylation in MET5A cells; assay type: cell-based; conditions: 10 nM 2 hours pre-treatment
Procedure: as §2, §3
Levels of PARP1, cleaved PARP1, AKT and phosphorylated AKT in the MET5A cell cultures at 24 hours were also determined by Western blot analysis and relative densitometry.

AKT phosphorylation [3] = experiment: Western blot of AKT phosphorylation in MMP cells; assay type: cell-based, human; conditions: 10 nM 2 hours pre-treatment, ± 50 μM cisplatin
Procedure: as §2, §3, §4

H2596 cells = experiment: Proliferation assay in H2596 cells; assay type: cell-based; conditions: 10 nM single agent, 24 and 48 hours; very low ERβ
Procedure: as §1

MSTO-211H/ERβ cells = experiment: Proliferation assay in MSTO-211H cells transfected with ERβ expression vector; assay type: cell-based; conditions: 10 nM, 24 and 48 hours; transient transfection with ERβ expression vector
Description: The epithelioid MPM derived REN cell line was isolated, characterized and provided by Dr. Albelda S. M. (University of Pennsylvania, Philadelphia; PA, USA). The biphasic MSTO-211H and the mesothelial MET5A cell lines were obtained from the Istituto Scientifico Tumori (IST) Cell-bank, Genoa, Italy; the MMB and MMP cell lines have been derived from pleural effusions of patients with MPM and stabilized in culture (Cacciotti P, et al., Proc Natl Acad Sci USA 2001; 98:12032-7; Pinton G., et al, Cancer Res 2009; 69:4598-604); the H2596 cell line was produced by Dr. H. I. Pass from surgical specimens derived from patients with resected MPM (Pass H. I., et al., Ann Thorac Surg 1995; 59(4):835-44). Cells were grown in RPMI medium supplemented with 10% FBS, […] streptomycin and 10 μg/ml penicillin at 37° C. in a humidified environment containing 5% CO2. Mycoplasma infection was excluded by the use of Mycoplasma Plus™ PCR Primer Set kit from Stratagene (La Jolla, Calif., USA). […]
as §1, with “Following treatment cells were trypsinized and stained with Trypan blue.” left out

REN cells = experiment: Proliferation assay (Trypan blue viable cell count; wash-off and add-on experiments) in REN cells; assay type: cell-based, human
Procedure: as §1
Control cultures were maintained in normal growth medium without added drug. The number of viable cells was determined as described for the proliferation assay.
In the add-on experiments the second drug was added directly to the cell culture medium without wash-off of the first drug. […] Control cultures were maintained in normal growth medium without added drug. The number of viable cells was determined as described for the proliferation assay.

In the case of `Cc1noc(C)c1-c1c(/C(N)=N/O)c2ccccc2n1-c1ccc(O)cc1` [Compound (I)], the “inhibition of proliferation, MMB cells” value (MMB cells) is reported as “significantly (p≤0.05) inhibited proliferation”, the “inhibition of proliferation, MSTO-211H cells” value (MSTO-211H cells) is reported as “no response” and the “toxicity assessed by changes of mice body weights” value [1] is reported as “not to be toxic”. For the same compound, the “level of cleaved PARP1 in MMP cells” value (PARP1 cleavage) was “most significant increase in the level of cleaved PARP1”, the “basal pAKT levels in MET5A control cells” value (AKT phosphorylation [2]; no cisplatin) was “no effect on basal pAKT levels” and the “effect on cisplatin-mediated inhibition of pAKT in MET5A cells” value (AKT phosphorylation [2]; then cisplatin) was “antagonized the cisplatin-mediated inhibition of pAKT”. For the same compound, the “AKT phosphorylation in MMP cells” value (AKT phosphorylation [3]) was “significantly reduced AKT phosphorylation both in the absence and in the presence of cisplatin”, the “inhibition of proliferation, H2596 cells” value (H2596 cells) was “weak response” and the “inhibition of proliferation, MSTO-211H/ERβ cells” value (MSTO-211H/ERβ cells) was “sensitized these cells to Compound (I)”. For the same compound, the “anti-proliferative effect, pre-treatment then 20 μM cisplatin” value (REN cells; 10 nM 2 hours, wash-off, 20 μM cisplatin for additional 24 hours) was “as efficacious as 100 μM cisplatin alone”, the “inhibitory effect on cell growth and viability, pre-treatment then cisplatin/pemetrexed” value (REN cells; 10 nM 2 hours, wash-off, cisplatin 100 μM and pemetrexed 22 μM for additional 24 hours) was “strong synergistic inhibitory effect on cell growth and viability” and the “inhibitory effect on cell growth and viability, pre-treatment then cisplatin” value (REN cells; 10 nM 2 hours, wash-off, cisplatin 100 μM for additional 24 hours) was “strong synergistic inhibitory effect on cell growth and viability”. The “anti-proliferative effect, pre-treatment then cisplatin 20-100 μM” value (REN cells; 10 nM 2 hours, wash-off, cisplatin for additional 24 hours) was “most efficacious anti-proliferative effect was observed when Compound (I) pre-treatment was combined with the highest concentration of cisplatin (100 μM)”, the “enhancement of anti-proliferative effect of pemetrexed” value (REN cells; 10 nM 2 hours, wash-off, pemetrexed 5-22 μM for additional 24 hours) was “No enhanced anti-proliferative effect” and the “synergy when cisplatin is given first (reverse order)” value (REN cells; 10 nM Compound (I) added 2, 4, 8, 12 hours after start of 100 μM cisplatin, 24 hours) was “did not result in synergistic inhibition of cell growth and viability”. For the same compound, the “growth inhibition versus single agents, cisplatin given first” value (REN cells; 10 nM Compound (I) added after 100 μM cisplatin, 24 hours) was “greater growth inhibition than cells treated with only one of the agents”, the “inhibition of proliferation, REN cells” value (REN cells; 10 nM single agent, 24 and 48 hours) was “significantly (p≤0.05) inhibited proliferation” and the “growth inhibitory activity after brief exposure and wash-off” value (REN cells; 10 nM, 2 hours exposure, total incubation 24 hours) was “significantly (p≤0.05) increased growth inhibitory activity relative to 1 hour exposure and exposures longer than 8 hours”. The “enhancement of anti-proliferative effect of cisplatin, add-on experiment” value (REN cells; 100 μM cisplatin added 2, 4, 8, 12 hours after start of 10 nM Compound (I), 24 hours) was “greatest inhibitory effect obtained when adding cisplatin after 2 hours of Compound (I) pre-treatment”, the “concentration dependence of anti-proliferative effect after 2 hours pre-treatment” value (REN cells; 0.4, 2 and 10 nM, wash-off, 24-72 hours) was “largest anti-proliferative effect was observed with the highest Compound (I) concentration used” and the “duration of inhibitory effect on REN cell proliferation” value (REN cells; 2-hours pre-treatment with 0.4, 2 or 10 nM, wash-off, irrespective of concentration) was “at least 24 hours”. For the same compound, the “growth inhibition of REN cells” value (REN cells; 24 hours treatment, range 1-100 nM, versus untreated cells) was “significantly (p≤0.05) reduced cell growth and viability in a dose-dependent manner”, the “dose of highest efficacy for growth inhibition” value (REN cells; REN cells, 24 hours, range 1-100 nM tested) was 10 nM and the “isobologram analysis of combination with cisplatin” value (REN cells; analysis of Example 4(b) results (FIG. 4F)) was “synergistic effect”.
